Measurements: patent US5821386A (priority 1997, dated 1998)
Where “and” joins values, the source holds several entries; their conditions need not be identical. Equal values may be shown once. Entries after “also recorded” stand apart in the source; their conditions may differ. Read-outs that look alike come from different tables or passages of the source.

Tests used:
[1] = biological target: T1, human norepinephrine transporter (Homo sapiens, UniProt P23975); assay: biochemical; type: binding
T1 construct: expressed in transfected cells; host or cells: HEK cells (HEK-hNET)
T1 sequence (P23975 whole entry): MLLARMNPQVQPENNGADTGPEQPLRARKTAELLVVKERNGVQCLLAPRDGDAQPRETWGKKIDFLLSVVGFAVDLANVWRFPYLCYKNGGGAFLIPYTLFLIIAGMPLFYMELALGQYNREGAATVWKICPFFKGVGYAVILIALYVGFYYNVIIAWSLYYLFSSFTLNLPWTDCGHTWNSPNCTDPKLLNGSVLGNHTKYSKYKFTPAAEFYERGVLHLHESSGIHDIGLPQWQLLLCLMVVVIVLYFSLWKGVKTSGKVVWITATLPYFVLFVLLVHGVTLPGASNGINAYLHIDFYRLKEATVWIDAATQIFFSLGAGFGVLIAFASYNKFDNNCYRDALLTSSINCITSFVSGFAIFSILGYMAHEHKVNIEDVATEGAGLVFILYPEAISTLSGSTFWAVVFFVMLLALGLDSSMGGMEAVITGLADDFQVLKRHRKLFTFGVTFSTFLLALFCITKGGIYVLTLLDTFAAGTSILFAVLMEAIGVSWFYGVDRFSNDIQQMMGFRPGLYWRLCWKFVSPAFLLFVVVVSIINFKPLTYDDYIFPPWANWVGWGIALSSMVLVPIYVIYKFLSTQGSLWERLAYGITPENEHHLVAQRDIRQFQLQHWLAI

[2] = biological target: T2, human serotonin transporter (Homo sapiens, UniProt P31645); assay: [3H]serotonin uptake by HEK-hSERT cells; type: cell-based; conditions: for inhibition of serotonin reuptake: Example 5; for IC50: Inhibition of 5HT uptake, IC50, HEK-hSERT cells; for 5HT uptake/binding: ratio; for 5HT/DA uptake: selectivity ratio
T2 construct: expressed in transfected cells; host or cells: HEK cells (HEK-hSERT)
T2 sequence (P31645 whole entry): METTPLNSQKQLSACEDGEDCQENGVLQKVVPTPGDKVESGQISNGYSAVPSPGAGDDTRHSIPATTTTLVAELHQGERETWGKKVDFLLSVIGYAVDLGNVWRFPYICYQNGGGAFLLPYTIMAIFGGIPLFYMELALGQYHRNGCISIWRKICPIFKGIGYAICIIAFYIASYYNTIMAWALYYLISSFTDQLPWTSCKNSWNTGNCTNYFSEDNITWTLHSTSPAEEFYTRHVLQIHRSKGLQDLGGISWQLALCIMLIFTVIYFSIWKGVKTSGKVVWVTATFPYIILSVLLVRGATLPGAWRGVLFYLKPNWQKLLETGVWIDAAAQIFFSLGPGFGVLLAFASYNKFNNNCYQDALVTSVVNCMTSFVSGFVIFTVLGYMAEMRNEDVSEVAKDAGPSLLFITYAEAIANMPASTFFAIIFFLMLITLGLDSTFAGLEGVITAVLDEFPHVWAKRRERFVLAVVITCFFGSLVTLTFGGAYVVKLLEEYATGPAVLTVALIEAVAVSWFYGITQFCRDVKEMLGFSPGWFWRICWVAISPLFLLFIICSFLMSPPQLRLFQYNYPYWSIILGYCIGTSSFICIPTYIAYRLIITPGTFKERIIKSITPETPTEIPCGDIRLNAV

[3] = biological target: T3, human dopamine transporter (Homo sapiens, UniProt Q01959); assay: [3H]dopamine uptake by C6-hDAT cells; conditions: for IC50: Inhibition of DA uptake, IC50, C6-hDAT cells; for DA uptake/binding: ratio
T3 sequence (Q01959 whole entry): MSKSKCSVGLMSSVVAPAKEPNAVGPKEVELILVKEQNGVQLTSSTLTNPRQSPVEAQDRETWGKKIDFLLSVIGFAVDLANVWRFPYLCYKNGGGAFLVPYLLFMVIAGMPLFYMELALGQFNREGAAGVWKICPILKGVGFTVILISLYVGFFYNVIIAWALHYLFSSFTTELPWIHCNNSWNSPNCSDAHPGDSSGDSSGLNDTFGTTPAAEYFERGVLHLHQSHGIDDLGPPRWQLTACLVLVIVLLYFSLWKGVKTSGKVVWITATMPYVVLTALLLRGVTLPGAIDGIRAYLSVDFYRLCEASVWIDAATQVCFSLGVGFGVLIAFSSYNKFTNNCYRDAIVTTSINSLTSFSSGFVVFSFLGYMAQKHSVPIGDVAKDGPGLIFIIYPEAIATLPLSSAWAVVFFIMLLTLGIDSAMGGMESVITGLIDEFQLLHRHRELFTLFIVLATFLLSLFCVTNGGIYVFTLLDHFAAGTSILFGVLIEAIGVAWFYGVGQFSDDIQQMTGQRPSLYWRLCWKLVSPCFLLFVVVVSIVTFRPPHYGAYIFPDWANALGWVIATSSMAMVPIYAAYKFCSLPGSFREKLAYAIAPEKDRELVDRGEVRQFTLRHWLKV
Description: Drugs (10 mM stock solution) were dissolved in DMSO. The final DMSO concentration in the assay is 0.01 percent. Pipetting was performed with a Biomek 2000 robotic work station.
Uptake was initiated with the addition of [3H]DA (20 nM, specific acitivity 20-53 Ci/mmol) in a final volume of 500 μl. Mazindol (5 μM) was used to define nonspecific uptake. Cells were preincubated for 10 minutes, with drug before addition of neurotransmitter. Uptake was terminated after a 2 minute incubation by removing buffer, and the plate was placed on ice and washed twice with 1 ml ice cold phosphate-buffered saline.

[4] = biological target: T2, human serotonin transporter; assay: [125I]RTI-55 binding to serotonin transporter, HEK-hSERT cells
[5] = biological target: T3, human dopamine transporter; assay: [125I]RTI-55 binding to dopamine transporter, C6-hDAT cells; parameters: expressed in transfected cells; host or cells: C6 cells (C6-hDAT); conditions: read-out: Binding to DA cloned transporter, [I125]RTI-55 Ki
[6] = Dose response study of induced locomotor stimulation (Example 2, Table I); type: in vivo, male Swiss-Webster mice; conditions: IP; for Maximal Effect Relative to Cocaine / ED50: Table I; for ED50: Mus musculus, 30-60 minutes period, read-out: ED50 (dose producing 1/2 maximal stimulant activity)
[7] = biological target: T1, human norepinephrine transporter; assay: cell-based; type: cell-based
[8] = Interaction study: antagonism of cocaine-induced locomotor stimulation (Example 3); conditions: for effect on the stimulant effect of cocaine (words): IP, 20 mg/kg cocaine, mice; for p, one-way ANOVA, overall effect for treatment groups: log10 horizontal activity counts, 0-30 minutes
[9] = Eight hour time course of locomotor stimulation, cocaine alone and Compound 2 alone (Example 4); conditions: for p, two-way ANOVA, effect of Treatment: horizontal activity counts/10 min, eight hours; for p, one-way ANOVA, effect of Treatment: log10 horizontal activity counts
[10] = human, hek-hnet and c6-hdat cells
[11] = HEK-hNET cells, read-out: Binding to NE cloned transporter, [I125]RTI-55 Ki
[12] = HEK-hNET cells, read-out: Inhibition of NE uptake, IC50
[13] = IP, 10, 20 and 40 mg/kg cocaine

| Structure (SMILES) | IC50 [2] | 5HT uptake/binding [2] | 5HT/DA uptake [2] | IC50 [3] | DA uptake/binding [3] | Ki [4] | Ki [5] | Maximal Effect Relative to Cocaine [6] | ED50 ([6]; mice) | NE/DA uptake [7, 10] | NE uptake/binding ([7]; human, hek-hnet cells) | effect on the stimulant effect of cocaine (words) ([8]; 20 mg/kg) | p, one-way ANOVA, overall effect for treatment groups [8] | IC50 [7, 12] | also measured |
| --- | --- | --- | --- | --- | --- | --- | --- | --- | --- | --- | --- | --- | --- | --- | --- |
| CN(C)C1CC(c2ccc(Cl)c(Cl)c2)c2ccccc21 (stereo not shown) [Compound 1] | 0.0067 ± 0.0022 µM | 2.2 | 0.035 | 0.19 ± 0.02 µM | 6.6 | 0.0031 ± 0.0012 µM | 0.029 ± 0.006 µM | 0.82 | 4.88 mg/kg | 0.38 | 0.19 | – | – | – | Ki ([1]; Binding to NE cloned transporter, [I125]RTI-55 Ki): 0.37 ± 0.06 µM; inhibition of serotonin reuptake [2]: selectively inhibits serotonin and norepinephrine reuptake; inhibition of norepinephrine reuptake [7]: selectively inhibits serotonin and norepinephrine reuptake; IC50 ([7]; Inhibition of NE uptake, IC50): 0.072 ± 0.04 µM |
| CCCN(C)C1CC(c2ccc(Cl)c(Cl)c2)c2ccccc21 (stereo not shown) [Compound 2] | 0.19 µM and 1.5 µM | – | – | 0.34 µM and 0.19 µM | 1.4 and 1.1 | 0.044 ± 0.006 µM | 0.18 ± 0.1 µM | 0.51 | 5.65 mg/kg | 1.9 and 2.2 | 1.6 | antagonized the stimulant effect of cocaine | > 0.05 | 0.64 µM and 0.42 µM | Ki [1, 11]: 0.4 µM and 0.26 µM; effect on the stimulant effect of cocaine (words) ([8]; listed as Compounds 2, 20 mg/kg): Block the Effects of Cocaine in Mice; inhibition of serotonin reuptake [2]: reduced inhibition of serotonin and norepinephrine reuptake; dose at maximum effect ([9]; Compound 2 IP, 280-310 min): 12.9 mg/kg; maximum effect estimated from fitted dose-response curve ([9]; Compound 2 IP, 280-310 min, vehicle constant 399): 4581 counts/10 min; duration of stimulant effects ([9]; IP, Compound 2, 3 to 30 mg/kg): Up to Seven; p, two-way ANOVA, effect of Treatment [9]: < 0.001; p, one-way ANOVA, effect of Treatment ([9]; 280-310 min): < 0.001; inhibition of norepinephrine reuptake ([7]; Example 5): reduced inhibition of serotonin and norepinephrine reuptake |
| CCN(C)C1CC(c2ccc(Cl)c(Cl)c2)c2ccccc21 (stereo not shown) [Compound 3] | 0.024 ± 0.007 µM | 1.5 | 0.10 | 0.27 ± 0.03 µM | 6.9 | – | – | 0.93 | 10.8 mg/kg | – | – | – | – | – | – |
| CCNC1CC(c2ccc(Cl)c(Cl)c2)c2ccccc21 (stereo not shown) [Compound 4] | 0.013 ± 0.004 µM | 6.5 | 0.21 | 0.061 ± 0.012 µM | 7.5 | 0.002 ± 0.0008 µM | – | 1.07 | 3.9 mg/kg | – | – | – | – | – | – |
| CC(C)(C)NC1CC(c2ccc(Cl)c(Cl)c2)c2ccccc21 (stereo not shown) [Compound 6] | 3.1 ± 1.2 µM | 4.2 | 8.4 | 0.37 ± 0.17 µM | 2.8 | – | – | – | 506 mg/kg | – | – | Block the Effects of Cocaine in Mice; also recorded: antagonized the stimulant effect of cocaine | < 0.5 | 0.31 ± 0.05 µM | NE uptake/binding ([7]; ratio): 2.1; NE/DA uptake ([7]; selectivity ratio): 0.84 |
| CN(C1CC(c2ccc(Cl)c(Cl)c2)c2ccccc21)C(C)(C)C (stereo not shown) [Compound 7] | > 10 µM | – | – | 2.7 ± 1.5 µM | 3.0 | – | – | – | – | – | – | Block the Effects of Cocaine in Mice; also recorded: antagonized the stimulant effect of cocaine; also recorded: lock the effects of cocaine in laboratory mice | < 0.5 | – | effect on locomotor activity ([6]; mice): inhibited locomotor activity; also recorded: reducing locomotor activity |
| CC(C)N(C)C1CC(c2ccc(Cl)c(Cl)c2)c2ccccc21 (stereo not shown) [Compound 8] | – | – | – | 0.053 ± 0.001 µM | 0.24 | – | 0.22 ± 0.04 µM | – | – | – | – | – | – | – | – |
| CCCNC1CC(c2ccc(Cl)c(Cl)c2)c2ccccc21 (stereo not shown) [Compound 9] | 0.24 ± 0.07 µM | 2.6 | 4.7 | 0.051 ± 0.021 µM | 1.6 | 0.093 ± 0.009 µM | 0.032 ± 0.006 µM | – | – | 1.5 | 0.68 | – | – | 0.075 ± 0.035 µM | Ki [1, 11]: 0.11 ± 0.05 µM |
| CN(Cc1ccccc1)C1CC(c2ccc(Cl)c(Cl)c2)c2ccccc21 (stereo not shown) [Compound 10] | 3.7 ± 1.3 µM | 21. | 6.7 | 0.55 ± 0.2 µM | 4.6 | – | – | – | – | – | – | – | – | – | – |
| COC(=O)[C@H]1[C@@H](OC(=O)c2ccccc2)C[C@@H]2CC[C@H]1N2C [cocaine] | – | – | – | – | – | – | – | – | – | – | – | – | – | – | time of maximal stimulant effects ([9]; IP, 20 mg/kg cocaine): during the first 30 minutes; duration of stimulant effects [9, 13]: up to 3 hours; onset of stimulant effects [9, 13]: ≤ 10 min; dose at maximum effect ([9]; cocaine IP, first 30 minutes): 18.3 mg/kg; maximum effect estimated from fitted dose-response curve ([9]; cocaine IP, first 30 minutes, vehicle constant 3172): 6059 counts/10 min; p, two-way ANOVA, effect of Treatment [9]: 0.089; p, one-way ANOVA, effect of Treatment ([9]; 0-30 min): < 0.001 |
